In patent publication US10597388B2, “Pyridazinone herbicides” (FMC CORPORATION, priority 2014, dated 2020):

What was measured:
Assay in all cases: Test D controlled growth environment herbicide test, pre- and postemergence
Assay type in all cases: in vivo
[1] = tested on: Russian thistle (Salsola kali)
Excerpt: (§1) Seeds of plant species selected from bluegrass (annual bluegrass, Poa annua), blackgrass (Alopecurus myosuroides), Canada thistle (Cirsium arvense), canarygrass (Phalaris minor), chickweed (common chickweed, Stellaria media), geranium, cutleaf (cutleaf geranium, Geranium dissectum), galium (catchweed bedstraw, Galium aparine), bromegrass, downy (downy bromegrass, Bromus tectorum), field poppy (Papaver rhoeas), field violet (Viola arvensis), foxtail, green (green foxtail, Setaria viridis), deadnettle (henbit deadnettle, Lamium amplexicaule), ryegrass, Italian (Italian ryegrass, Lolium multiflorum), kochia (Kochia scoparia), lambsquarters (Chenopodium album), oilseed rape (Brassica napus), pigweed (Amaranthus retroflexus), chamomile (scentless chamomile, Matricaria inodora), Russian thistle (Salsola kali), speedwell (bird's-eye speedwell, Veronica persica), barley, spring (spring barley, Hordeum vulgare), wheat, spring (spring wheat, Triticum aestivum), buckwheat, wild (wild buckwheat, Polygonum convolvulus), mustard, wild (wild mustard, Sinapis arvensis), oat, wild (wild oat, Avena fatua), radish, wild (wild radish, Raphanus raphanistrum), windgrass (Apera spica-venti), barley, winter (winter barley, Hordeum vulgare), and wheat, winter (winter wheat, Triticum aestivum) were planted into a silt loam soil and treated preemergence with test chemicals formulated in a non-phytotoxic solvent mixture which included a surfactant.
(§2) At the same time, these species were planted in pots containing Redi-Earth® planting medium (Scotts Company, 14111 Scottslawn Road, Marysville, Ohio 43041) comprising spaghnum peat moss, vermiculite, wetting agent and starter nutrients and treated with postemergence applications of the test chemicals formulated in the same manner. Plants ranged in height from 2 to 18 cm (1- to 4-leaf stage). Treated plants and controls were maintained in a controlled growth environment for 14 to 21 d after which time all species were compared to controls and visually evaluated. Plant response ratings, summarized in Table D, are based on a scale of 0 to 100 where 0 is no effect and 100 is complete control. A dash (-) response means no test result.

[2] = tested on: barley, winter (winter barley, Hordeum vulgare)
Excerpt: as §1, §2

[3] = tested on: bluegrass (annual bluegrass, Poa annua)
Excerpt: as §1, §2

[4] = tested on: field violet (Viola arvensis)
Excerpt: as §1, §2

[5] = tested on: oat, wild (wild oat, Avena fatua)
Excerpt: as §1, §2

[6] = tested on: pigweed (Amaranthus retroflexus)
Excerpt: as §1, §2

[7] = tested on: radish, wild (wild radish, Raphanus raphanistrum)
Excerpt: as §1, §2

[8] = tested on: speedwell (bird's-eye speedwell, Veronica persica)
Excerpt: as §1, §2

[9] = tested on: wheat, winter (winter wheat, Triticum aestivum)
Excerpt: as §1, §2

[10] = tested on: windgrass (Apera spica-venti)
Excerpt: as §1, §2

[11] = Postemergence, 125 g ai/ha, visual rating on scale 0 (no effect) to 100 (complete control), 14 to 21 d
[12] = Postemergence, 250 g ai/ha, scale 0 to 100 (0 no effect, 100 complete control)
[13] = postemergence, 62 g ai/ha, scale 0 to 100, 0 no effect, 100 complete control
[14] = Postemergence, 31 g ai/ha, scale 0 to 100 (0 no effect, 100 complete control)
[15] = Preemergence, 62 g ai/ha, scale 0 to 100 (0 no effect, 100 complete control)
[16] = Preemergence, 125 g ai/ha, scale 0 to 100 (0 no effect, 100 complete control)
[17] = Preemergence, 250 g ai/ha, scale 0 to 100, 0 no effect, 100 complete control

Cc1ccc2ccccc2c1-c1c(O)c(Br)nn(C)c1=O [Compound 23]
Plant response rating, Russian Thistle [1, 11]: 75 | Plant response rating, Russian Thistle [1, 12]: 80 | Plant response rating, Russian Thistle [1, 13]: 75 | Plant response rating, Barley, Winter [2, 11]: 25 | Plant response rating, Barley, Winter [2, 12]: 30 | Plant response rating, Barley, Winter [2, 13]: 15 | Plant response rating, Bluegrass [3, 11]: 35 | Plant response rating, Bluegrass [3, 12]: 40 | Plant response rating, Bluegrass [3, 13]: 35 | Plant response rating, Field Violet [4, 11]: 75 | Plant response rating, Field Violet [4, 12]: 75 | Plant response rating, Field Violet [4, 13]: 45 | Plant response rating, Oat, Wild [5, 11]: 95 | Plant response rating, Oat, Wild [5, 12]: 95 | Plant response rating, Oat, Wild [5, 13]: 75 | Plant response rating, Pigweed [6, 11]: 85 | Plant response rating, Pigweed [6, 12]: 100 | Plant response rating, Pigweed [6, 13]: 75 | Plant response rating, Radish, Wild [7, 11]: 100 | Plant response rating, Radish, Wild [7, 12]: 100 | Plant response rating, Radish, Wild [7, 13]: 75 | Plant response rating, Speedwell [8, 11]: 75 | Plant response rating, Speedwell [8, 12]: 95 | Plant response rating, Speedwell [8, 13]: 100 | Plant response rating, Wheat, Winter [9, 11]: 55 | Plant response rating, Wheat, Winter [9, 12]: 70 | Plant response rating, Wheat, Winter [9, 13]: 40 | Plant response rating, Windgrass [10, 11]: 75 | Plant response rating, Windgrass [10, 12]: 85 | Plant response rating, Windgrass [10, 13]: 70

COC(=O)Oc1c(C)nn(C)c(=O)c1-c1c(C)sc2ccc(C)cc12 [Compound 80]
Russian Thistle plant response rating [1, 14]: 70 | Plant response rating, Russian Thistle [1, 11]: 80 | Plant response rating, Russian Thistle [1, 12]: 80 | Plant response rating (scale of 0 to 100), Russian Thistle ([1]; Preemergence, 31 g ai/ha): 10 | Plant response rating, Russian Thistle [1, 15]: 95 | Plant response rating, Russian Thistle [1, 16]: 95 | Plant response rating, Russian Thistle [1, 17]: 100 | Plant response rating, Russian Thistle [1, 13]: 70 | Barley, Winter plant response rating [2, 14]: 0 | Plant response rating, Barley, Winter [2, 11]: 5 | Plant response rating, Barley, Winter [2, 12]: 15 | Plant response rating (scale of 0 to 100), Barley, Winter ([2]; Preemergence, 31 g ai/ha): 0 | Plant response rating, Barley, Winter [2, 15]: 0 | Plant response rating, Barley, Winter [2, 16]: 15 | Plant response rating, Barley, Winter [2, 17]: 45 | Plant response rating, Barley, Winter [2, 13]: 0 | Bluegrass plant response rating [3, 14]: 15 | Plant response rating, Bluegrass [3, 11]: 35 | Plant response rating, Bluegrass [3, 12]: 45 | Plant response rating (scale of 0 to 100), Bluegrass ([3]; Preemergence, 31 g ai/ha): 20 | Plant response rating, Bluegrass [3, 15]: 55 | Plant response rating, Bluegrass [3, 16]: 75 | Plant response rating, Bluegrass [3, 17]: 75 | Plant response rating, Bluegrass [3, 13]: 35 | Field Violet plant response rating [4, 14]: 90 | Plant response rating, Field Violet [4, 11]: 95 | Plant response rating, Field Violet [4, 12]: 100 | Plant response rating (scale of 0 to 100), Field Violet ([4]; Preemergence, 31 g ai/ha): 55 | Plant response rating, Field Violet [4, 15]: 95 | Plant response rating, Field Violet [4, 16]: 100 | Plant response rating, Field Violet [4, 17]: 95 | Plant response rating, Field Violet [4, 13]: 85 | Oat, Wild plant response rating [5, 14]: 95 | Plant response rating, Oat, Wild [5, 11]: 100 | Plant response rating, Oat, Wild [5, 12]: 100 | Plant response rating (scale of 0 to 100), Oat, Wild ([5]; Preemergence, 31 g ai/ha): 85 | Plant response rating, Oat, Wild [5, 15]: 90 | Plant response rating, Oat, Wild [5, 16]: 90 | Plant response rating, Oat, Wild [5, 17]: 95 | Plant response rating, Oat, Wild [5, 13]: 98 | Pigweed plant response rating [6, 14]: 100 | Plant response rating, Pigweed [6, 11]: 100 | Plant response rating, Pigweed [6, 12]: 100 | Plant response rating (scale of 0 to 100), Pigweed ([6]; Preemergence, 31 g ai/ha): 100 | Plant response rating, Pigweed [6, 15]: 100 | Plant response rating, Pigweed [6, 16]: 100 | Plant response rating, Pigweed [6, 17]: 100 | Plant response rating, Pigweed [6, 13]: 100 | Radish, Wild plant response rating [7, 14]: 10 | Plant response rating, Radish, Wild [7, 11]: 50 | Plant response rating, Radish, Wild [7, 12]: 65 | Plant response rating (scale of 0 to 100), Radish, Wild ([7]; Preemergence, 31 g ai/ha): 20 | Plant response rating, Radish, Wild [7, 15]: 75 | Plant response rating, Radish, Wild [7, 16]: 100 | Plant response rating, Radish, Wild [7, 17]: 100 | Plant response rating, Radish, Wild [7, 13]: 50 | Speedwell plant response rating [8, 14]: 65 | Plant response rating, Speedwell [8, 11]: 85 | Plant response rating, Speedwell [8, 12]: 80 | Plant response rating (scale of 0 to 100), Speedwell ([8]; Preemergence, 31 g ai/ha): 65 | Plant response rating, Speedwell [8, 15]: 95 | Plant response rating, Speedwell [8, 16]: 95 | Plant response rating, Speedwell [8, 17]: 100 | Plant response rating, Speedwell [8, 13]: 75 | Wheat, Winter plant response rating [9, 14]: 0 | Plant response rating, Wheat, Winter [9, 11]: 5 | Plant response rating, Wheat, Winter [9, 12]: 15 | Plant response rating (scale of 0 to 100), Wheat, Winter ([9]; Preemergence, 31 g ai/ha): 0 | Plant response rating, Wheat, Winter [9, 15]: 0 | Plant response rating, Wheat, Winter [9, 16]: 0 | Plant response rating, Wheat, Winter [9, 17]: 20 | Plant response rating, Wheat, Winter [9, 13]: 0 | Windgrass plant response rating [10, 14]: 75 | Plant response rating, Windgrass [10, 11]: 95 | Plant response rating, Windgrass [10, 12]: 98 | Plant response rating (scale of 0 to 100), Windgrass ([10]; Preemergence, 31 g ai/ha): 75 | Plant response rating, Windgrass [10, 15]: 90 | Plant response rating, Windgrass [10, 16]: 95 | Plant response rating, Windgrass [10, 17]: 98 | Plant response rating, Windgrass [10, 13]: 90
